In patent US20230271969A1, “NITROGEN-CONTAINING FUSED RING DERIVATIVE INHIBITOR, PREPARATION METHOD THEREFOR AND USE THEREOF” (Shanghai Hansoh Biomedical Co., Ltd., priority 2020, published 2023):

Columns and labels:
[1] = target: T1, NK3 receptors (Homo sapiens, UniProt P29371); assay: Antagonism of IP1 in HEK293 cells with stable expression of NK3; format: cell-based; conditions: agonist Senktide 3 nM, read-out: NK3R IC50 (nM) IP1
T1 construct: expressed in transfected cells
T1 sequence (P29371 1-465): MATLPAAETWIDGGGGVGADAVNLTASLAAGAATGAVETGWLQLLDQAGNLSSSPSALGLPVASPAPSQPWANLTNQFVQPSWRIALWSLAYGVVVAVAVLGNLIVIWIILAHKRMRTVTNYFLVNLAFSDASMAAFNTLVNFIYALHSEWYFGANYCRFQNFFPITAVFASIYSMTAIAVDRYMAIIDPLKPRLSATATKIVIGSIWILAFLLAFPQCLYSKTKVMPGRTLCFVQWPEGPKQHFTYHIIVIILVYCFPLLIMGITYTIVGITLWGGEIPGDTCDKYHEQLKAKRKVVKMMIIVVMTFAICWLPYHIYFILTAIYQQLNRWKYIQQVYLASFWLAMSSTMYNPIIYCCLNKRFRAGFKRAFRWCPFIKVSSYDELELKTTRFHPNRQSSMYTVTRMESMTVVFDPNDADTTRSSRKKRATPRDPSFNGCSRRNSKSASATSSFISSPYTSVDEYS
Experimental: Determination of the Effect of the Compounds of the Present Invention on IP1 in HEK293 Cells with Stable Expression of NK3
The objective of this test example was to determine the antagonism effect of the compounds on the activity of HEK293-NK3 cells.
3. Experimental Methods: • 1. […] HEK293-NK3 cell line was cultured in complete medium and seeded in the coated dishes at 37° C., 5% CO2 until 70%˜90% confluence. • 3. […] The cells were digested and resuspended in 1× Stimulation Buffer (IP-ONE Gq Kit), seeded into the 384-well cell culture plate (which contained the compound to be tested) at 5,000 cells/well/5 μL by using Multidrop Combi. The culture plate was centrifuged at 300 rpm at room temperature for 60 seconds, and then incubated at 37° C., 5% CO2 for 15 minutes. • 5. The cell culture plate was taken out from the CO2 incubator. […] The culture plate was centrifuged at 300 rpm at room temperature for 60 seconds, and then incubated at 37° C., 5% CO2 for 2 hours. • 6. The cell culture plate was taken out from the CO2 incubator. 5 μL of IP1 d2 reagent and then 5 μL of IP1 Tb Cryptate Antibody reagent were added by using Multidrop Combi. The culture plate was centrifuged at room temperature at 300 rpm for 60 seconds, and left to stand at room temperature for 1 hour. • 7. The plate was read by using EnVision Multilabel Reader, and data were collected at the same time.
The fluorescence signal ratio (Ratio) was read and collected by EnVision Multilabel Reader. According to the readings of the Low control (DMSO control) and High control (p)ositive compound) experimental groups, the antagonism percentage data were calculated as {% antagonism=(Ratio sample−Ratio low control)/(Ratio high control−Ratio low control)×100}.

[2] = target: T1, NK3 receptors; assay: Calcium ion fluidity (FLIPR) in cells with stable expression of NK3 receptors; format: cell-based; conditions: calcium signal, antagonist mode, read-out: NK3R IC50 (nM) FLIPR
Source text: Determination of the Effect of the Compounds of the Present Invention on Calcium Ion Fluidity in Cells with Stable Expression of NK3 Receptors
Experimental objective: The objective of this test example was to determine the inhibitory effect of the compounds on NK3 receptors.
Experimental Methods: • 1. […] Probenecid and BSA were freshly added on the day of the experiment. The buffers for the experiments included dye buffer, compound dilution buffer and the like. • 2. […] The culture medium was discarded, and 20 μL of dye was added. The cells were incubated at 37° C. in the dark for 60 min, and then the calcium signal was read. • 4. The antagonist was prepared before the experiments. […] The plate was transferred to FLIPR, and 6× concentration of the agonist compound was added at 5 μL/well. The values were read and the data were saved by using FLIPR. The total assay volume was 30 μL, comprising 20 μL/well of dye buffer, 5 μL/well of 5× concentration of the experimental compound, and 5 μL/well of 6× concentration of the agonist compound.
The calcium signal value was read by FLIPR. The output of each sampling time point in the experiment was calculated as the ratio of the signals at wavelengths of 340/510 nm to 380/510 nm. The maximum minus minimum value was calculated from the ratio signal curve. The IC50 value of the compound was calculated by fitting the data of inhibition rate percentage and ten concentrations to the parametric nonlinear logistic equation by using GraphPad prism.

SMILES | IC50 [1] [nM] | IC50 [2] [nM]
C[C@@H]1c2nnc(-c3nc4ccc(F)cc4s3)n2CCN1C(=O)c1ccc(Cl)c(Cl)c1 [Example 14, (R)-(3,4-Dichlorophenyl)(3-(6-fluorobenzo[d]thiazol-2-yl)-8-methyl-5,6-dihydro-[1,2,4]triazolo[4,3-a]pyrazin-7(8H)-yl)methanone] | 41.9 | 97.6
[2H]c1cc(C(=O)N2CCn3c(-c4nc5ccc(F)cc5s4)nnc3[C@H]2C)ccc1F [Example 61, (R)-(3-(6-Fluorobenzo[d]thiazol-2-yl)-8-methyl-5,6-dihydro-[1,2,4]triazolo[4,3-a]pyrazin-7(8H)-yl)(4-fluorophenyl-3-d)methanone] | 108 | 78.9
C[C@@H]1c2nnc(-c3nc4ccc(Cl)cc4s3)n2CCN1C(=O)c1ccc(Cl)cc1 [Example 20, (R)-(3-(6-Chlorobenzo[d]thiazol-2-yl)-8-methyl-5,6-dihydro-[1,2,4]triazolo[4,3-a]pyrazin-7(8H)-yl)(4-chlorophenyl)methanone] | 27.3 | 61
C[C@@H]1c2nnc(-c3nc4ccc(F)cc4s3)n2CCN1C(=O)c1ccc(Cl)cc1 [Example 13, (R)-(4-Chlorophenyl)(3-(6-fluorobenzo[d]thiazol-2-yl)-8-methyl-5,6-dihydro-[1,2,4]triazolo[4,3-a]pyrazin-7(8H)-yl)methanone] | 131 | 71.6
Cc1cccc2sc(-c3nnc4n3CCN(C(=O)c3ccc(F)cc3)[C@@H]4C)nc12 [Example 22, (R)-(4-Fluorophenyl)(8-methyl-3-(4-methylbenzo[d]thiazol-2-yl)-5,6-dihydro-[1,2,4]triazolo[4,3-a]pyrazin-7(8H)-yl)methanone] | 57 | 73.3
[2H]C([2H])([2H])N(c1nsc(-c2nnc3n2CCN(C(=O)c2ccc(Cl)cc2)[C@@H]3C)n1)C([2H])([2H])[2H] [Example 107, (R)-(3-(3-(Bis(methyl-d3)amino)-1,2,4-thiadiazol-5-yl)-8-methyl-5,6-dihydro-[1,2,4]triazolo[4,3-a]pyrazin-7(8H)-yl)(4-chlorophenyl)methanone] | 80.5 | 184
COc1ccc2nc(-c3nnc4n3CCN(C(=O)c3ccc(Cl)c(Cl)c3)[C@@H]4C)sc2c1 [Example 31, (R)-(3,4-Dichlorophenyl)(3-(6-methoxybenzo[d]thiazol-2-yl)-8-methyl-5,6-dihydro-[1,2,4]triazolo[4,3-a]pyrazin-7(8H)-yl)methanone] | 43.2 | 86.7
C[C@@H]1c2nnc(-c3nc4cc(F)ccc4s3)n2CCN1C(=O)c1ccc(Cl)cc1 [Example 10, (R)-(4-Chlorophenyl)(3-(5-fluorobenzo[d]thiazol-2-yl)-8-methyl-5,6-dihydro-[1,2,4]triazolo[4,3-a]pyrazin-7(8H)-yl)methanone] | 172 | 51.4
C[C@@H]1c2nnc(-c3nc(N(C)C)ns3)n2CCN1C(=O)c1ccc(F)cc1 [Example 60, (R)-(3-(3-(Dimethylamino)-1,2,4-thiadiazol-5-yl)-8-methyl-5,6-dihydro-[1,2,4]triazolo[4,3-a]pyrazin-7(8H)-yl)(4-fluorophenyl)methanone] | 190 | 205
Cc1ccc2nc(-c3nnc4n3CCN(C(=O)c3ccc(Cl)c(Cl)c3)[C@@H]4C)sc2c1 [Example 26, (R)-(3,4-Dichlorophenyl)(8-methyl-3-(6-methylbenzo[d]thiazol-2-yl)-5,6-dihydro-[1,2,4]triazolo[4,3-a]pyrazin-7(8H)-yl)methanone] | 36.1 | 96.7
[2H]c1cc(C(=O)N2CCn3c(-c4nc5ccc(F)cc5s4)nnc3[C@H]2C)ccc1Cl [Example 101, (R)-(4-Chlorophenyl-3-d)(3-(6-fluorobenzo[d]thiazol-2-yl)-8-methyl-5,6-dihydro-[1,2,4]triazolo[4,3-a]pyrazin-7(8H)-yl)methanone] | 61 | 86.7
C[C@@H]1c2nnc(-c3nc(Br)ns3)n2CCN1C(=O)c1ccc(F)cc1 [Example 98] | 100 | 78.4
[2H]c1cc(C(=O)N2CCn3c(-c4nc5ccc(Cl)cc5s4)nnc3[C@H]2C)ccc1F [Example 103, (R)-(3-(6-Chlorobenzo[d]thiazol-2-yl)-8-methyl-5,6-dihydro-[1,2,4]triazolo[4,3-a]pyrazin-7(8H)-yl)(4-fluorophenyl-3-d)methanone] | 16 | 27.1
Cc1ccc2nc(-c3nnc4n3CCN(C(=O)c3ccc(F)cc3)[C@@H]4C)sc2c1 [Example 24, (R)-(4-Fluorophenyl)(8-methyl-3-(6-methylbenzo[d]thiazol-2-yl)-5,6-dihydro-[1,2,4]triazolo[4,3-a]pyrazin-7(8H)-yl)methanone] | 49.5 | 45.6
[2H]c1cc(C(=O)N2CCn3c(-c4nc5ccc(Cl)cc5s4)nnc3[C@H]2C)ccc1Cl [Example 102, (R)-(3-(6-Chlorobenzo[d]thiazol-2-yl)-8-methyl-5,6-dihydro-[1,2,4]triazolo[4,3-a]pyrazin-7(8H)-yl)(4-chlorophenyl-3-d)methanone] | 16.4 | 32.5
C[C@@H]1c2nnc(-c3nc4ccc(C#N)cc4s3)n2CCN1C(=O)c1ccc(F)cc1 [Example 21, (R)-2-(7-(4-Fluorobenzoyl)-8-methyl-5,6,7,8-tetrahydro-[1,2,4]triazolo[4,3-a]pyrazin-3-yl)benzo[d]thiazol-6-carbonitrile] | 28.2 | 123
C[C@@H]1c2nnc(-c3nc4cc(F)ccc4s3)n2CCN1C(=O)c1ccc(F)cc1 [Example 9, (R)-(3-(5-Fluorobenzo[d]thiazol-2-yl)-8-methyl-5,6-dihydro-[1,2,4]triazolo[4,3-a]pyrazin-7(8H)-yl)(4-fluorophenyl)methanone] | 46 | 33.3
COc1ccc2nc(-c3nnc4n3CCN(C(=O)c3ccc(F)cc3)[C@@H]4C)sc2c1 [Example 29, (R)-(4-Fluorophenyl)(3-(6-methoxybenzo[d]thiazol-2-yl)-8-methyl-5,6-dihydro-[1,2,4]triazolo[4,3-a]pyrazin-7(8H)-yl)methanone] | 29 | 65.8
COc1ccc2nc(-c3nnc4n3CCN(C(=O)c3ccc(Cl)cc3)[C@@H]4C)sc2c1 [Example 30, (R)-(4-Chlorophenyl)(3-(6-methoxybenzo[d]thiazol-2-yl)-8-methyl-5,6-dihydro-[1,2,4]triazolo[4,3-a]pyrazin-7(8H)-yl)methanone] | 187 | 47.4
C[C@@H]1c2nnc(-c3nc4cnc(Cl)cc4s3)n2CCN1C(=O)c1ccc(Cl)cc1 [Example 97, (R)-(4-Chlorophenyl)(3-(6-chlorothiazolo[4,5-c]pyridin-2-yl)-8-methyl-5,6-dihydro-[1,2,4]triazolo[4,3-a]pyrazin-7(8H)-yl)methanone] | 172 | 156
C[C@@H]1c2nnc(-c3nc4ccccc4s3)n2CCN1C(=O)c1ccc(Cl)c(Cl)c1 [Example 4, (R)-(3-(Benzo[d]thiazol-2-yl)-8-methyl-5,6-dihydro-[1,2,4]triazolo[4,3-a]pyrazin-7 (8H)-yl)(3,4-dichlorophenyl)methanone] | 94.3 | 61.3
